Data reported in US12214092B2, “Systems and methods for treating biological fluids” (Cerus Corporation, priority 2017, dated 2025).

Key:
S. epidermidis = assay: Amotosalen and UV light (265-385 nm LEDs) treatment of S. epidermidis in plasma, colony forming unit assay; assay type: cell-based; conditions: 15 μM amotosalen, ~3 J/cm^2, plasma
Description: This system comprised single arrays facing (e.g., opposing) a platform positioned for the illumination of biological fluids placed on the platform (see e.g., FIG. 5). System controls provided for adjustment of the LEDs during treatment of the biological fluid samples, controlling both the timing and intensity of illumination by the LEDs to achieve a desired light UV light dose. Evaluation of photochemical conversion, photoproduct formation, pathogen inactivation, and plasma and/or platelet quality parameters are performed for each light source wavelength as described previously. In one study using the device, photochemical inactivation of various bacteria were tested for each of the above-referenced LEDs together with amotosalen. The bacteria included E. coli (Gram negative), S. epidermidis (Gram positive), and P. acnes (anaerobe). As there are known germicidal effects of ultraviolet light with wavelengths in the UVC and UVB range, the study was controlled to determine for each LED wavelength the total inactivation levels, as well as inactivation levels specifically resulting from the UV light (without added amotosalen) or the photochemical treatment process itself.

[1] = Plasma parameters pre- and post-illumination, whole-blood derived plasma, 50 μM amotosalen, ~6.4 J/cm^2
Description: This pool and split format was repeated four times to generate four replicates.

With Cc1oc2c(C)c3oc(=O)cc(C)c3cc2c1COCCN [S-59, 3-(2-aminoethoxymethyl)-2,5,9-trimethylfuro[3,2-g]chromen-7-one] the “Log reduction from S-59” value (S. epidermidis; 265 nm) was 0.89 log, the Log reduction total (S. epidermidis; 265 nm) was 5.23 log and the “Log reduction from S-59” value (S. epidermidis; 280 nm) was 1.56 log. The Log reduction total (S. epidermidis; 280 nm) was 5.02 log, the “Log reduction from S-59” value (S. epidermidis; 310 nm) was 6.68 log and the Log reduction total (S. epidermidis; 310 nm) was 7.19 log. The “Log reduction from S-59” value (S. epidermidis; 325 nm) was 7.17 log, the Log reduction total (S. epidermidis; 325 nm) was 7.18 log and the “Log reduction from S-59” value (S. epidermidis; 340 nm) was 7.18 log. The Log reduction total (S. epidermidis; 340 nm) was 7.28 log, the “Log reduction from S-59” value (S. epidermidis; 365 nm) was 7.32 log and the Log reduction total (S. epidermidis; 365 nm) was 7.26 log. For the same compound, the “Log reduction from S-59” value (S. epidermidis; 385 nm) was 1.85 log, the Log reduction total (S. epidermidis; 385 nm) was 1.76 log and the “Factor II” value ([1]; 340 nm, Post-UVA) was 84.00 IU/dL. For the same compound, the “Factor V” value ([1]; 340 nm, Post-UVA) was 88.83 IU/dL, the “Factor VIII” value ([1]; 340 nm, Post-UVA) was 127.18 IU/dL and the “Factor X” value ([1]; 340 nm, Post-UVA) was 84.68 IU/dL. The “Factor XI” value ([1]; 340 nm, Post-UVA) was 73.93 IU/dL, the Fibrinogen ([1]; 340 nm, Post-UVA) was 259.75 mg/dL and the PT ([1]; 340 nm, Post-UVA) was 12.03 s. For the same compound, the “Protein C” value ([1]; 340 nm, Post-UVA) was 122.33 IU/dL, the “Protein S” value ([1]; 340 nm, Post-UVA) was 118.03 IU/dL and the “Total Protein” value ([1]; 340 nm, Post-UVA) was 72.43 mg/mL. For the same compound, the aPTT ([1]; 340 nm, Post-UVA) was 33.95 s, the “pCO2 @ 37° C.” value ([1]; 340 nm, Post-UVA) was 66.75 mmHg and the “pH @ 37° C.” value ([1]; 340 nm, Post-UVA) was 7.20. For the same compound, the “pO2 @ 37° C.” value ([1]; 340 nm, Post-UVA) was 42.88 mmHg, the “Factor II” value ([1]; 340 nm, Pre-UVA) was 93.43 IU/dL and the “Factor V” value ([1]; 340 nm, Pre-UVA) was 97.08 IU/dL. For the same compound, the “Factor VIII” value ([1]; 340 nm, Pre-UVA) was 165.50 IU/dL, the “Factor X” value ([1]; 340 nm, Pre-UVA) was 96.68 IU/dL and the “Factor XI” value ([1]; 340 nm, Pre-UVA) was 85.65 IU/dL. The Fibrinogen ([1]; 340 nm, Pre-UVA) was 290.00 mg/dL, the PT ([1]; 340 nm, Pre-UVA) was 11.68 s and the “Protein C” value ([1]; 340 nm, Pre-UVA) was 133.90 IU/dL. The “Protein S” value ([1]; 340 nm, Pre-UVA) was 119.00 IU/dL, the “Total Protein” value ([1]; 340 nm, Pre-UVA) was 72.13 mg/mL and the aPTT ([1]; 340 nm, Pre-UVA) was 31.15 s. The “pCO2 @ 37° C.” value ([1]; 340 nm, Pre-UVA) was 67.38 mmHg, the “pH @ 37° C.” value ([1]; 340 nm, Pre-UVA) was 7.19 and the “pO2 @ 37° C.” value ([1]; 340 nm, Pre-UVA) was 131.80 mmHg. For the same compound, the “Factor II” value ([1]; INT-100, Post-UVA) was 110.93 IU/dL, the “Factor V” value ([1]; INT-100, Post-UVA) was 90.25 IU/dL and the “Factor VIII” value ([1]; INT-100, Post-UVA) was 108.85 IU/dL. The “Factor X” value ([1]; INT-100, Post-UVA) was 84.53 IU/dL, the “Factor XI” value ([1]; INT-100, Post-UVA) was 76.63 IU/dL and the Fibrinogen ([1]; INT-100, Post-UVA) was 261.50 mg/dL. For the same compound, the PT ([1]; INT-100, Post-UVA) was 12.28 s, the “Protein C” value ([1]; INT-100, Post-UVA) was 109.30 IU/dL and the “Protein S” value ([1]; INT-100, Post-UVA) was 121.80 IU/dL. For the same compound, the “Total Protein” value ([1]; INT-100, Post-UVA) was 70.35 mg/mL, the aPTT ([1]; INT-100, Post-UVA) was 33.98 s and the “pCO2 @ 37° C.” value ([1]; INT-100, Post-UVA) was 60.68 mmHg. For the same compound, the “pH @ 37° C.” value ([1]; INT-100, Post-UVA) was 7.24, the “pO2 @ 37° C.” value ([1]; INT-100, Post-UVA) was 41.55 mmHg and the “Factor II” value ([1]; INT-100, Pre-UVA) was 91.45 IU/dL. The “Factor V” value ([1]; INT-100, Pre-UVA) was 98.55 IU/dL, the “Factor VIII” value ([1]; INT-100, Pre-UVA) was 154.25 IU/dL and the “Factor X” value ([1]; INT-100, Pre-UVA) was 92.40 IU/dL. For the same compound, the “Factor XI” value ([1]; INT-100, Pre-UVA) was 89.55 IU/dL, the Fibrinogen ([1]; INT-100, Pre-UVA) was 278.75 mg/dL and the PT ([1]; INT-100, Pre-UVA) was 11.48 s. For the same compound, the “Protein C” value ([1]; INT-100, Pre-UVA) was 98.55 IU/dL, the “Protein S” value ([1]; INT-100, Pre-UVA) was 111.88 IU/dL and the “Total Protein” value ([1]; INT-100, Pre-UVA) was 80.18 mg/mL. The aPTT ([1]; INT-100, Pre-UVA) was 30.35 s, the “pCO2 @ 37° C.” value ([1]; INT-100, Pre-UVA) was 69.20 mmHg and the “pH @ 37° C.” value ([1]; INT-100, Pre-UVA) was 7.22. The “pO2 @ 37° C.” value ([1]; INT-100, Pre-UVA) was 141.95 mmHg.
